According to patent publication US12653181B2, “Control of ripening and senescence in pre-harvest and post-harvest plants and plant materials by manipulating alternative oxidase activity” (Washington State University, priority 2012, dated 2026):
“Also recorded” adds a separate entry of the source.

Key:
[1] = test system: Wild type tomatoes (var. 'Ailsa Craig'); assay: Ripening (visual pigmentation) of wild type mature green tomato fruit; format: in vivo; settings: for ripening response (pigmentation green to red) versus deionized water control: treated or injected with 1 mL of 2% solution, 7 days
Bartlett pears = assay: Ethylene and CO2 evolution of 1-MCP treated Bartlett pears in air-tight chambers (GC-FID, gas analyzer); format: in vivo, Pyrus communis
Procedure: Thereafter, each experimental group of fruit was placed in a separate air-tight chamber connected to a gas chromatography (GC) instrument configured to draw samples every 8 hours over the course of 5 days, to measure ethylene via a flame ionizing detector (FID), and to measure CO2 via a gas analyzer. The experiment was performed with 4 pears per chamber in 3 replicates per experimental group. Monitoring was performed to detect minor variation in air flow rates in all experimental chambers used and detected variations were accounted for in subsequent calculations.

whole pears = assay: Firmness of whole pears after 24 h immersion in glyoxylic acid solution (penetrometer); format: in vivo, pear; settings: after 6 days
Procedure: In order to ripen whole pear fruit pretreated with 1-MCP, the fruits were treated by immersion in 0 mM, 0.1 mM, 0.25 mM, 0.5 mM glyoxylic acid. In other experiments, the fruits were treated by ambient fogging of fruit with 1 liter of solution of 1% (0.135 M), 2% (0.270 M) and 3% (0.405 M) glyoxylic acid solution (determined with 74 as the molecular weight of glyoxylic acid). The ambient fogging was carried out in a 192,000 cm^3 volume chamber using an ultrasonic humidifier. Various indicators of ripening were assayed thereafter. In a first assay, whole pears pre-treated with 1-MCP were immersed in 0 mM, 0.1 mM, 0.25 mM, or 0.5 mM glyoxylic acid solution for 24 hours. The fruit was assayed for firmness using a penetrometer six days after the immersion treatment. FIG. 7 graphically illustrates the reduction in firmness (i.e., development of softness) in pear fruit treated with various concentrations of glyoxylic acid. Non-1-MCP treated fruit (light bars) and 1-MCP treated fruit (dark bars) responded differently to glyoxylic acid treatment.

[2] = test system: Non-MCP treated D'Anjou pears; assay: Flesh firmness of non-MCP treated D'Anjou pears after atomized GLA exposure (penetrometer); format: in vivo, pear; settings: 3% GLA, various exposure times, 1, 3, 5, 7 days post exposure
Procedure: Pear fruit: Non-MCP treated D'Anjou pears picked on Oct. 4, 2019 were obtained from Blue Bird packing house (Blue Bird Inc., Wenatchee Washington) and stored at 1° C. until use.
GLA treatment: Humidification via sonication was accomplished by administering 1 liter of 3% GLA solution into the reservoir of a Crane humidifier model EE-5301. Atomized GLA solution was directed via surgical tubing from the humidifier into a custom acrylic chamber measuring approximately 40×60×60 cm containing 12 pears per treatment. Pears were elevated from the chamber floor on metal baking racks to allow for exposure to GLA on all faces. One (1) 1 cm diameter port allowed for gas exchange between the atmosphere and chamber. A thick cloud of atomized GLA solution was visible in each chamber for the duration of each experimental exposure time. All experiments were conducted at 20° C.
(§1) Firmness measurements: Fruit firmness was measured via FTA penetrometer (GUSS Manufacturing, Norfolk, VA) at three equidistant locations around the middle of each fruit. Therefore, one biological replicate yielded three technical replicates. For each penetrometer measurement, approximately 2 cm^2 of fruit epidermal tissue was removed with a fruit peeler. Firmness measurements were taken at the locations on the fruit where epidermal tissue was removed. […]

Haas avocado = assay: Avocado fruit flesh firmness after atomized GLA exposure (penetrometer); format: in vivo; settings: for percentage of terminal ripened firmness achieved: 3% GLA 16 hours
Procedure: (§2) Fruits: Avocado and Mango fruits were purchased from Pullman Walmart and half were immediately placed in separate chambers for administration of glyoxylic acid, half were left on the bench top at 20° C.
(§3) GLA treatment: Humidification via sonication was accomplished by administering 1 liter of 3% (m/V) glyoxylic acid (GLA) solution in deionized water into the reservoir of a Crane humidifier model EE-5301. Atomized GLA solution was directed via surgical tubing from the humidifier into a custom acrylic chamber measuring approximately 40×60×60 cm containing 12 pears per treatment for 16 hours. Fruits were elevated from the chamber floor on metal baking racks to allow for exposure to GLA on all faces. One (1) 1 cm diameter port allowed for gas exchange between the atmosphere and chamber. A thick cloud of atomized GLA solution was visible in each chamber for the duration of each experimental exposure time. All experiments were conducted at 20° C.
Firmness measurements: Fruit firmness was measured via FTA penetrometer (GUSS Manufacturing, Norfolk, VA) at three equidistant locations around the middle of each fruit. Therefore, one biological replicate yielded three technical replicates. For each penetrometer measurement, approximately 2 cm^2 of fruit epidermal tissue was removed with a fruit peeler. Firmness measurements were taken at the locations on the fruit where epidermal tissue was removed. Firmness measurements were taken from three biological replicates per treatment at 1, 3, 5 and 7 days post treatment (DPT).
Firmness normalization: Firmness measurements were normalized to account for variability in starting fruit flesh firmness. At the start of each experiment, three untreated fruits were selected, and three fruit flesh measurements were taken from each and averaged. Firmness measurements from each exposure time treatment are reported as a percentage of the starting fruit flesh firmness average.

[3] = test system: whole pears with or without 1-MCP pre-treatment; assay: Internal ethylene of pears after ambient fogging with glyoxylic acid (gas extraction, GC/MS); format: in vivo, pear; settings: both 1-MCP pre-treated and non-1-MCP pre-treated fruit
Procedure: As an additional confirmation of glyoxylic acid-mediated ripening of 1-MCP pre-treated pears, the internal ethylene of the fruit was also measured. First, the whole fruit with or without 1-MCP pre-treatment were treated with 0.5% ([…]) or 1% (0.135 M) glyoxylic acid using ambient fogging. Thereafter, one quarter of four separate pears from each treatment was sliced into four pieces and placed into a gas extraction chamber. A vacuum was created using an aspirator. For each experiment, 0.5 ml of extracted ethylene gas was injected into the GC/MS in three replicates. Measurements of ethylene in ppm were calculated using a previously established standard curve.

[4] = test system: 1-MCP pre-treated fruit (whole pear); assay: Firmness and Brix of 1-MCP pre-treated whole pears after ambient fogging with glyoxylic acid; format: in vivo; settings: 1% (0.135 M) ambient fogging
Procedure: In order to ripen whole pear fruit pretreated with 1-MCP, the fruits were treated by immersion in 0 mM, 0.1 mM, 0.25 mM, 0.5 mM glyoxylic acid. In other experiments, the fruits were treated by ambient fogging of fruit with 1 liter of solution of 1% (0.135 M), 2% (0.270 M) and 3% (0.405 M) glyoxylic acid solution (determined with 74 as the molecular weight of glyoxylic acid). The ambient fogging was carried out in a 192,000 cm^3 volume chamber using an ultrasonic humidifier. Various indicators of ripening were assayed thereafter.
Next, 1-MCP pre-treated fruit were treated with glyoxylic acid using ambient fogging at 0% or 1% (0.135 M) glyoxylic acid. In this experiment, the fruit firmness was measured at two time points—immediately after the fogging treatment and again 8 days later using a penetrometer. […] The fruit were also assessed for ripeness by assaying the Brix values, which are indicative of total soluble solids and also serve as an industry standard for fruit ripening. […] All these experiments have been repeated multiple times and have been consistent with the above data.

Mango = Mango fruit flesh firmness after atomized GLA exposure (penetrometer); format: in vivo; settings: 3% GLA, 16 hours, readings confounded by variable rinds
Procedure: as §2, §3, §1

rin tomato fruit = assay: Ripening (visual pigmentation) of rin mutant tomato fruit; format: in vivo; settings: for ripening response (change in pigmentation) of rin tomato fruit: 2% GLA, observed over 14 days; for pigment response in untreated rin fruit on the same branches as treated fruit: GLA injection to a single fruit
[5] = test system: fruit slices of 1-MCP pre-treated pears; assay: Ethylene from slices of 1-MCP pre-treated pears immersed in glyoxylic acid, airtight jar; format: in vivo, pear; settings: immersed 12-24 hours, measured after 8 hours
Procedure: The effect of glyoxylic acid on the restarting of ripening after 1-MCP-mediated arrest was also assayed with fruit that was sliced. Whole unripe pears were pre-treated with 1-MCP according to standard practice. The unripe pre-treated fruit were sliced and subject to glyoxylic acid treatments to assess its ability to induce ripening in the sliced fruit. First, fruit slices were immersed in 0.5 mM and 2.5 mM glyoxylic acid solution for 12-24 hours and placed in an airtight jar. Ethylene levels were measured after 8 hours. […] Slices immersed in the 2.5 mM glyoxylic also produced more (approximately 2-fold more) ethylene than the controls, although the increase in ethylene levels was not as high as for the 0.5 mM treatment.

sliced pear fruit = assay: Ethylene evolved from sliced 1-MCP fruit treated with glyoxylic acid in sealed modified atmosphere bag; format: in vivo
Procedure: Next, a modified protocol was followed to expose fruit slices derived from 1-MCP pre-treated fruit to solutions of glyoxylic acid. Glyoxylic acid solutions ranging from 0.005% (0.675 mM), 0.150% (20.25 mM), 0.5% ([…]), 1% (0.135 M), 2% (0.270 M), 2.5% (0.338 M) and 3% (0.405 M) were prepared either alone or in conjunction with the Nature seal solution, which contains antioxidants that prevent fruit oxidation. 1-MCP fruit was sliced and treated with the 0.005%, 0.150%, 0.5% or 2.5% glyoxylic acid solutions and placed in a modified, sealed atmosphere bag. The amount of evolved ethylene was measured directly from the sealed bag of fruit. […] Finally, the 1-MCP fruit that were sliced and treated with 1%, 2% and 3% glyoxylic acid were evaluated in consumer preference trials in 2014 and 2015.

[Cl-].[Cl-].[Co+2] [CoCl2, reference compound]
visible ripening response ([1]; in vivo): no visible ripening response

S [RC-1, hydrogen sulfide]
evolution of ethylene (Bartlett pears; 0.5 mM H2S): clear and steady increase in the evolution of ethylene
level of respiration (evolved CO2) (Bartlett pears; 0.5 mM H2S (RC-1), 5 days monitoring): positive trend
level of respiration (evolved CO2) (Bartlett pears; 0.5 mM H2S (RC-1), 5 days monitoring, listed as H2S): generally positive trend
level of ethylene versus control fruit (Bartlett pears; 2.5 mM H2S): indistinguishable and very low
level of respiration (evolved CO2) (Bartlett pears; 2.5 mM H2S, perhaps a stress response): higher levels of carbon dioxide
time post-treatment at which ethylene evolution is observed (Bartlett pears; RC-1, pear fruit blocked for ripening by 1-MCP): 48 h

O=CC(=O)O [glyoxylic acid]
firmness effect in 1-MCP treated fruit (whole pears; 0.5 mM immersion solution): especially enhanced over control
firmness of non-1-MCP treated fruit (whole pears; 0.5 mM): reduction in firmness is evident
firmness of 1-MCP treated fruit (whole pears; all concentrations (0.1, 0.25, 0.5 mM), 24 h immersion, compared to non-1-MCP treated fruit): drop in firmness
ripening as measured by pear fruit flesh firmness [2]: trend towards accelerated ripening
percentage of terminal ripened firmness achieved (Haas avocado; one day post treatment (control 31%)): 81%
percentage of terminal ripened firmness achieved (Haas avocado; three days post treatment (control 96%)): 92%
ripening as measured by fruit flesh firmness versus non-GLA control (Haas avocado; 3% GLA solution, atomized, 16 hours, listed as GLA): significant acceleration of ripening; also recorded: evidence for accelerated ripening
time at which ethylene evolution is observed (Bartlett pears; 0.25 mM RC-2, pear fruit blocked for ripening by 1-MCP): ≤ 16 h
evolution of ethylene (Bartlett pears; 0.25 mM glyoxylic acid (RC-2)): clear and steady increase in the evolution of ethylene
level of ethylene versus control fruit (Bartlett pears; 1, 2.5 and 10 mM glyoxylic acid): indistinguishable and very low
maturation in pears after 1-MCP treatment (Bartlett pears; as little as 0.25 mM): induces maturation
internal ethylene evolution ([3]; 0.5% (0.6.75 mM) ambient fogging): effective in inducing the evolution of ethylene
internal ethylene evolution ([3]; 1% (0.135 M) ambient fogging): effective in inducing the evolution of ethylene
fruit firmness ([4]; 8 days): 2 lbf
Brix values (total soluble solids) ([4]; 8 days post fogging): significantly increased brix values
ripening as measured by fruit flesh firmness (Mango): trend towards accelerated ripening
ripening response (change in pigmentation) of rin tomato fruit (rin tomato fruit): change in pigmentation resembling that achieved at breaker stage in wild type tomatoes
ripening response (change in pigmentation) of rin tomato fruit (rin tomato fruit; listed as GLA): enables ripening of rin mutant fruit
pigment response in untreated rin fruit on the same branches as treated fruit (rin tomato fruit): systemic
pigment response in untreated rin fruit on the same branches as treated fruit (rin tomato fruit; listed as GLA): Systemic pigmentation response
ethylene generated relative to control slices ([5]; 0.5 mM): 5 fold
ethylene generated relative to control slices ([5]; 2.5 mM): approximately 2 fold
evolution of ethylene from sliced fruit versus control (sliced pear fruit; 2.5% (337 mM) solution, sealed atmosphere bag): enhanced the evolution of ethylene; also recorded: significantly increased ethylene production
ethylene evolved versus control fruit (sliced pear fruit; some of a range of concentrations (0.005%-2.5%)): releases more ethylene than the control fruit
ripening response (pigmentation green to red) versus deionized water control [1]: accelerated ripening
ripening response (pigmentation green to red) versus deionized water control ([1]; listed as GLA): accelerated ripening response
